US10166203B2, “Pharmaceutical composition for treating cancer including 2-methoxy-4-(3-(4-methoxyphenyl)prop-1-en-1-yl)phenol as active ingredient” (CHUNGBUK NATIONAL UNIVERSITY INDUSTRY-ACADEMIC COOPERATION …, priority 2015, dated 2019)
In brackets after ≈: the same amount, converted by molar mass.

Experiments:
SW480 cells [1] = experiment: Cell viability analysis using MTT assay; assay type: cell-based, human
Description: The human colon cancer cell line, SW480, was purchased from the American Type Culture Collection (Manassas, Va., USA) and cultured in an RPMI (Roswell Park Memorial Institute)-1640 medium (Gibco-BRL) to which 10% heat-inactivated fetal bovine serum (FBS) and penicillin/streptomycin at 37° C. humidified atmosphere of 5% CO2. The cells were cultured in a 100 mm culture dish at a concentration of 4×10^5 cells for experiments.
The influence of 2-methoxy-4-(3-(4-methoxyphenyl)prop-1-en-1-yl)phenol (MMPP) on the viability of cells was confirmed by colorimetric and metabolic activity assay using MTT [3-(4,5-dimethylthiazol-2-yl)-2,5-diphenyltetrazolium bromide]. Put briefly, cells were inoculated on 96-well plates at 1×10^4 cells/well and cultured for 24 hours. Cells were treated with 2.5 to 10 μg/ml MMPP or DMSO (dimethyl sulfoxide), a solvent for MMPP. After culturing for 24 hours, the medium including MMPP was removed and replaced with 100 μl of fresh medium. After culturing for 1.5 hours, medium including MTT was removed and 200 μl DMSO was added to each well. The plate was then agitated at a weak intensity until the color reaction of the plate became uniform. Colorimetric evaluation was performed using a microplate reader at 540 nm.
The inhibitory effect of MMPP on the growth of human colon cancer cells was examined using SW480 cells.

SW480 cells [2] = experiment: Western blot analysis of cell cycle regulatory and apoptosis signal proteins; assay type: cell-based, human
Description: Lysates, cytosolic and nuclear extracts of whole cells were obtained. SDS-PAGE and western blot analysis were performed as described in published documents 1 and 2 [1, 2]. Put briefly, the cells of 5×10^5 cells/well were inoculated in 6-well plates and cultured for 24 hours. Cells were then treated with MMPP or DMSO for 24 hours. The treated cells were washed twice with PBS and lysed. Proteins from the lysed cells were separated on 10 to 15% SDS-PAGE. Proteins were transferred to a PVDF membrane and the PVDF membrane was blocked with TBS/T-buffer including 5% defatted milk for 2.5 hours at room temperature. The membrane to which the proteins are transferred was analyzed by using a mouse monoclonal antibody for as a primary antibody. Protein expression was visualized using a chemiluminescence reagent (Amersham Pharmacia Biotech, Inc., Buckinghamshire, UK) and measured using a in which a CCD camera (Fusion-FX, Fisher BioTech, Ltd., Wembley, Australia) is installed.
2. Effect of MMPP on Cell Cycle Regulatory Signal and Apoptosis Signal In order to investigate the basic mechanism of the growth inhibitory effect of colon cancer cells of MMPP, it was examined whether MMPP treatment affects cell cycle regulation and apoptosis signals in SW480 cells.

STAT3 = target: T1, STAT3 (Homo sapiens, UniProt P40763); experiment: DNA binding activity of STAT3 using EMSA; assay type: cell-based; details: SW480 cells exposed for 1 hour
T1 construct: endogenous in cells; host or cells: SW480 cells (nuclear extract)
Description: The DNA binding activity of STAT3 was measured using an electrophoretic mobility shift assay (EMSA) as described in document 1. Put briefly, cells were cultured in a 100 mm culture dish at 37° C. for 24 hours and then treated with MMPP or DMSO. After incubation for 24 hours, the cells were washed three times with cold PBS and nuclear extracts for EMSA experiments were prepared. Relative thickness of the DNA-protein binding band was quantified using Lab Works 4.0 software (UVP Inc., Upland, Calif., USA) after scanning with densitometry.
In order to determine whether MMPP reacted with STAT3 to inhibit DNA binding activity of STAT3, MMPP was exposed to SW480 cells for 1 hour and the DNA binding activity of STAT3 was measured.

SW480 xenografted mouse = experiment: Anticancer activity in a colon cancer xenograft animal model; assay type: in vivo; details: twice a week for 3 weeks, nude mice

T1 sequence (P40763 whole entry): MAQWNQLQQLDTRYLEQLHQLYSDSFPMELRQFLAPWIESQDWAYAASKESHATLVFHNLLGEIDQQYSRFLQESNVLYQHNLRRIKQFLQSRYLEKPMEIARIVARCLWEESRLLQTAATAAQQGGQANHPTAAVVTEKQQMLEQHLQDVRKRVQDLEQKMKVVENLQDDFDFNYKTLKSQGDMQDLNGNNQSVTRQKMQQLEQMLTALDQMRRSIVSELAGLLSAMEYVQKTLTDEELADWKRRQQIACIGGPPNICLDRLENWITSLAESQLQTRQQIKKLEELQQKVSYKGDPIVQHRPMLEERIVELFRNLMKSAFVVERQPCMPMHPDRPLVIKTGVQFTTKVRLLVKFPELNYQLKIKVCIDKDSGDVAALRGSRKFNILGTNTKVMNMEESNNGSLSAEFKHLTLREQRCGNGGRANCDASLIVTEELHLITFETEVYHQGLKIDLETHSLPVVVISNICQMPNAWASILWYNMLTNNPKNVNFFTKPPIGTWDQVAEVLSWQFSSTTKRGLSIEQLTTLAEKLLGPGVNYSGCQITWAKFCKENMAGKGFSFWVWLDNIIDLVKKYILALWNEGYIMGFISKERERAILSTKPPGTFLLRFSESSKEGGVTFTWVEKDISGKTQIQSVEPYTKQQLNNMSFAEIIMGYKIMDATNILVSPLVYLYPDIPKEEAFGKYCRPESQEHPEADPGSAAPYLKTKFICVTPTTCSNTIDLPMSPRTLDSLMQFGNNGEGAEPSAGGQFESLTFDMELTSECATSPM

IC50 (SW480 cells [1]; Homo sapiens, MMPP 2.5 to 10 μg/ml, treated for 24 hours, MTT, read-out: IC50 value, inhibition of the growth of SW480 cells): 5.9 µg/mL (≈ 21.8 µM)
Structure (SMILES): COc1ccc(C/C=C/c2ccc(O)c(OC)c2)cc1 [MMPP, 2-methoxy-4-(3-(4-methoxyphenyl)propyl-1-en-1-yl)phenol]
cell density compared to the control group (SW480 cells [1]): significantly reduced cell density
expression of cell cycle regulatory signal proteins (SW480 cells [2]): effectively reduced the expression
expression of pro-apoptotic proteins cleaved caspase-3, cleaved caspase-8 and Bax (SW480 cells [2]): increased the expression
expression of the anti-apoptotic protein Bcl-2 (SW480 cells [2]): reduced the expression
DNA binding activity of STAT3 (STAT3): effectively inhibited DNA binding activity of STAT3
Tumor volume compared to the control group (SW480 xenografted mouse; 2.5 mg/kg intraperitoneal): 65%
Tumor volume compared to the control group (SW480 xenografted mouse; 5 mg/kg intraperitoneal): 35%
